Experiments:
IKKα = molecular target: T1, IKKα (Homo sapiens, UniProt O15111); assay: DELFIA kinase assay, IKKα; format: biochemical; settings: DELFIA kinase assay
T1 sequence (O15111 1-745): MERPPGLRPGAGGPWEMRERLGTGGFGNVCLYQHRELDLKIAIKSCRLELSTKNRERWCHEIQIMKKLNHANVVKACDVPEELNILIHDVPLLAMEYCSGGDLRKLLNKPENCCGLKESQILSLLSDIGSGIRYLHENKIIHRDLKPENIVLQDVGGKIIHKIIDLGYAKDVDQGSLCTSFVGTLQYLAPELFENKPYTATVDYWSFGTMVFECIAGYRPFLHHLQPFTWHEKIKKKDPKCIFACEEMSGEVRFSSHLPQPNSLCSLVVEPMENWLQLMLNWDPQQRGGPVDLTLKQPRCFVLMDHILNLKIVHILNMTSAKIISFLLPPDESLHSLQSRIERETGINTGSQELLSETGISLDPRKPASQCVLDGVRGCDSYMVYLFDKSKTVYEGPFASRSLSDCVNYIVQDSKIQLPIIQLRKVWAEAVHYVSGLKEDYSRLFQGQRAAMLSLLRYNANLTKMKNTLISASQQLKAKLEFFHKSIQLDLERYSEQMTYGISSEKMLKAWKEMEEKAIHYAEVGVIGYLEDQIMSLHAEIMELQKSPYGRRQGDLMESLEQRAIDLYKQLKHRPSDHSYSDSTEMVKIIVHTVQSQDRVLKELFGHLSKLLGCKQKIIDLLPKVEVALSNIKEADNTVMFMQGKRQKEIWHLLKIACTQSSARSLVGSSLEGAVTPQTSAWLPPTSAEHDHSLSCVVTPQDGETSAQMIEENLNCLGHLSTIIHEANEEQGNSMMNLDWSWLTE
Description: To examine the pyrrolo[2,3-b]pyridines as an alternative scaffold, we adopted the AIPP core because it had similar dimensions to SU909 (1), with HBD/HBA motifs positioned at the scaffold extremities to interact with both the hinge region and the G-loop wall of IKKα, a rationale we had previously proposed as the basis for imparting selectivity. A preliminary set of AIPP derivatives was designed and synthesised to explore its utility as an IKK-targeting scaffold, whilst incorporating additional functionality through which to introduce selectivity for the IKKα isoform (2–4; Figure 3). This was achieved by initially adopting two different approaches: either appending a hydrophobic moiety to the pyrrolo[2,3-b]pyridine motif as a fused form to afford the tricyclic derivatives 2 and 3, or as a phenyl substituent to introduce flexibility with respect to the central pyrrolo[2,3-b]pyridine moiety in 4. When assessed against IKKα and IKKβ using our in-house DELFIA kinase assay […] The pyrrolo[2,3-b]pyridine was bound to the hinge region in the classical HBA/HBD motif with the GK+3 amide backbone, whilst the aminoindazole projected towards the top of the pocket to interact with the G-loop (Figure 4A). […] In both isoforms, the 2-phenyl moiety protruded away from the hinge towards the exposed solvent area.
(§1) IKKα and IKKβ inhibitory activity were determined using a dissociation-enhanced ligand fluorescent immunoassay (DELFIA) based on the protocol of HTScan™ IKKβ Kinase Assay (Cell Signaling Technology, Danvers, MA, USA) as described in [24].

[1] = Mouse hepatocyte intrinsic clearance and half-life; format: in vitro ADME; settings: mouse CD1 hepatocytes
Protocol: Intrinsic clearance and half-life were determined using cryopreserved pooled mouse CD1 hepatocytes. Test compounds were analysed at 1 µM in Williams Media E buffer (0.01% DMSO) at a cell density of 0.5 × 10^6 cells mL^–1. Cells were incubated at 37 °C for one hour with shaking, and compound depletion was measured by LC-MS/MS at six time points (0.25, 5, 10, 20, 40, and 60 min).

Turbidimetric solubility = format: physicochemical; settings: pH 7.4, aqueous buffer, kinetic from dmso stock, 0.01 M phosphate-buffered saline pH7.4
Protocol: Pharmacokinetic studies were contracted to Sygnature Discovery Limited. Turbidimetric Solubility was determined by diluting compound solutions (1 μM, 3 μM, 10 μM, 30 μM, 100 μM) prepared in DMSO into 0.01 M phosphate-buffered saline pH7.4. Turbidimetry was used as the endpoint by measuring absorbance at 620 nm.

IKKβ = molecular target: T2, IKKβ (Homo sapiens, UniProt O14920); assay: DELFIA kinase assay, IKKβ; format: biochemical; settings: read-out: Ki Values IKKβ
T2 sequence (O14920 1-756): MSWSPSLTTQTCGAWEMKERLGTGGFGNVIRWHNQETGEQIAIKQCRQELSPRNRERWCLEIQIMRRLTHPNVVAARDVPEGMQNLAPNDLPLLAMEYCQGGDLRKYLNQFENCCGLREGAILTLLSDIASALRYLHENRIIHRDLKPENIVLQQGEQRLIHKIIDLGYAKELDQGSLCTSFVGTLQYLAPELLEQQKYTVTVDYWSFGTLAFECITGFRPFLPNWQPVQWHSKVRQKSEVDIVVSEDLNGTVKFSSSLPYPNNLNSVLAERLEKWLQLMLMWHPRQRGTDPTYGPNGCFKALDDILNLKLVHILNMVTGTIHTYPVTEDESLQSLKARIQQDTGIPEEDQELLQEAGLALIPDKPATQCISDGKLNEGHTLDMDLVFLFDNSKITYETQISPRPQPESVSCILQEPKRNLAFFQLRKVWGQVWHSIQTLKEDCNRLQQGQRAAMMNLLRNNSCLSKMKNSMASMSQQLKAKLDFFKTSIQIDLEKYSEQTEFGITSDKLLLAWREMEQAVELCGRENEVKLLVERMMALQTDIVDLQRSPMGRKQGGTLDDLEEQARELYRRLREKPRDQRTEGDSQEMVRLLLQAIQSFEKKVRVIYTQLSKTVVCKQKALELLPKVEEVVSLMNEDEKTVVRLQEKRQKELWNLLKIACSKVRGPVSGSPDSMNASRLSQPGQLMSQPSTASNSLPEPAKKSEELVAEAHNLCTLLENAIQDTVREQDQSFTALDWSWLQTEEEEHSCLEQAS
Protocol: as §1

For `Nc1n[nH]c2ccc(-c3ccnc4[nH]c(-c5ccnc(OCc6ccncc6)c5)cc34)cc12` [Compound 6k], the Ki (IKKα) was 6 nM, the half-life at 1 µM ([1]; cryopreserved pooled hepatocytes) was 2.02 h and the “Mouse Hepatocyte Clearance” value ([1]; 1 µM) was 11 μL/min/10^6 Cells. The solubility (Turbidimetric solubility) was greater than 100 µM and the Ki (IKKβ) was 12 nM.
